pIC50: −log10 of the molar value.
Columns and labels:
c-KIT = biological target: T1, c-KIT (Homo sapiens, UniProt P10721); assay: AlphaScreen kinase assay with recombinant enzyme, c-KIT; type: biochemical; settings: 100ATP, 8pt, GMean
T1 construct: purchased Millipore 14-559K
Description: (§1) In order to determine the effect of compounds on FLT3 catalytic activity, kinase assays using recombinant enzymes and AlphaScreen® technology have been established. The catalytic activity of c-kit activity was also measured to determine selectivity of the compounds. When the kinases are catalytically active, they phosphorylate a biotinylated peptide substrate on tyrosine residues. Using AlphaScreen® technology, the ability of the compounds to affect the catalytic activity of the kinases can be measured quantitatively. The peptide substrate is immobilized by the AlphaScreen® Streptavidin Donor beads and, upon phosphorylation by a tyrosine kinase, can bind to AlphaScreen® Anti-Phosphotyrosine (PY20) Acceptor beads. Upon excitation of these beads with laser light at 680 nm, singlet oxygen is produced. This singlet oxygen is rapidly quenched, unless the AlphaScreen® Anti-Phosphotyrosine (PY20) Acceptor beads are in close proximity, in which case a proximity signal can be measured at 580 nm. In the presence of catalytic activity, there is a very strong proximity signal. Selective kinase inhibitors affect a decrease in this proximity signal through a decrease in tyrosine phosphorylation of the peptide substrate.
(§2) The assay was performed as summarized below.
(§3) Poly (Glu4-Tyr) Peptide, biotin conjugate [Biotin-GG(EEEEY)10EE] (SEQ ID NO: 4)
(§4) Final concentration=30 nM
(§5) Final concentration for IC50 determination=10 μM (FLT3-D835Y or FLT3-ITD) or 100 μM (c-KIT)
(§6) AlphaScreen® Phosphotyrosine (PY20) Assay Kit
(§7) Final concentration=10 μg/mL
(§8) Dilute compounds in DMSO to 20× final concentration.
(§9) Add 1 μl of compound to each well of 384 well reaction plate (Perkin Elmer #6005359).
(§10) Mix enzyme and Poly (Glu4-Tyr) Peptide substrate at 1.33× final concentration in assay buffer.
(§11) Mix ATP at 5× final concentration in assay buffer.
(§12) Add 15 μL enzyme/substrate mixture to the reaction plate.
(§13) Add 4 μL of ATP to the reaction plate.
(§14) Mix Streptavidin Donor beads at 6× final concentration in Stop/Detection buffer.
(§15) Add 5 μL Streptavidin Donor beads to the reaction plate. Centrifuge 1 minute, shake to mix, and incubate at room temperature for 20 minutes.
(§16) Mix Anti-Phosphotyrosine (PY20) Acceptor beads at 6× final concentration in Stop/Detection buffer.
(§17) Add 5 μL Anti-Phosphotyrosine (PY20) beads to the reaction plate.
(§18) Centrifuge 1 minute, shake to mix, and incubate at room temperature for 60 minutes.
(§19) Read plate on Wallac EnVision™ 2103 Multilabel Reader.

[1] = tested on: MOLM-14 D835Y cells, FLT3 ITD and FLT3 D835Y; assay: Cell proliferation assay (CellTiter-Glo), MOLM-14 D835Y; type: cell-based; settings: Homo sapiens, 72 h, 3d-Growth, GMean
Excerpt: (§20) The FLT3 inhibitors may be assessed using the MOLM-14, Acute Myeloid Leukemia cell line that endogenously expresses FLT3 ITD or derivatives of the human FLT3 AML cell line which acquired the D835Y (activation loop) of F691L (gatekeeper) mutation after selection in escalating doses of the FLT3 Inhibitor AC220. FLT3 inhibitors may also be assessed using cells that are engineered to express mutant FLT3. For engineered cells, murine Ba/F3 cells were transfected with full-length FLT3 ITD/D835Y mutations. The parental BA/F3 cells are dependent upon Interleukin-3 (IL-3) for survival, and introduction of the FLT3 constructs rendered these cells dependent upon FLT3 kinase activity when cultured in the absences of IL-3. Engineered BA/F3 cell growth assays can be performed in either the […] of IL-3, to assess the compound inhibition of FLT3 or to detect the presence of off-target activity, respectively. Inhibitors of FLT3 kinase activity reduce or eliminate the FLT3 oncogenic signaling, resulting in reduced cell proliferation. This inhibition is measured as a function of compound concentration to asses IC50 values.
(§21) Cell lines used in proliferation assays are as follows in Table 3:
(§22) Cells were seeded at 1×10^4 cells per well of a 96 well cell culture plate in 50 μl of cell culture medium. Compounds were dissolved in DMSO, typically at a concentration of 0.5 mM and were serially diluted 1:3 for a total of eight points and added to the cells to final concentrations of […], 0.0041, 0.0014 and 0.00046 μM in 100 μl cell culture medium (final concentration 0.2% DMSO). […] The cells were incubated at 37° C., 5% CO2 for three days. CellTiter-Glo Buffer (Promega Cell Viability Assay catalog #G7573) and substrate were equilibrated to room temperature, and enzyme/substrate Recombinant Firefly Luciferase/Beetle Luciferin was reconstituted. The cell plates were equilibrated to room temperature for 30 minutes, then lysed by addition of an equivalent volume of the Celltiter-Glo Reagent. The plate was mixed for 10 minutes on a plate shaker to lyse the cells. The plates were read on a Tecan M1000 using Luminescence protocol modified to read 0.1 s per well. The luminescence reading assesses the ATP content, which correlates directly with cell number such that the reading as a function of compound concentration was used to determine the IC50 value.

[2] = biological target: T2, BA/F3-FLT3-ITD + D835Y cells (Homo sapiens, UniProt P36888, D835Y, cells depend on it, form not given); assay: Cell proliferation assay (CellTiter-Glo), engineered BA/F3 cells; type: cell-based, murine; settings: BaF3 FLT3 ITD/D835Y cells, 3d-Growth; read-out: BaF3_FLT3 ITD/D835Y 3d-Growth: IC50
T2 sequence (P36888 1-993 D835Y): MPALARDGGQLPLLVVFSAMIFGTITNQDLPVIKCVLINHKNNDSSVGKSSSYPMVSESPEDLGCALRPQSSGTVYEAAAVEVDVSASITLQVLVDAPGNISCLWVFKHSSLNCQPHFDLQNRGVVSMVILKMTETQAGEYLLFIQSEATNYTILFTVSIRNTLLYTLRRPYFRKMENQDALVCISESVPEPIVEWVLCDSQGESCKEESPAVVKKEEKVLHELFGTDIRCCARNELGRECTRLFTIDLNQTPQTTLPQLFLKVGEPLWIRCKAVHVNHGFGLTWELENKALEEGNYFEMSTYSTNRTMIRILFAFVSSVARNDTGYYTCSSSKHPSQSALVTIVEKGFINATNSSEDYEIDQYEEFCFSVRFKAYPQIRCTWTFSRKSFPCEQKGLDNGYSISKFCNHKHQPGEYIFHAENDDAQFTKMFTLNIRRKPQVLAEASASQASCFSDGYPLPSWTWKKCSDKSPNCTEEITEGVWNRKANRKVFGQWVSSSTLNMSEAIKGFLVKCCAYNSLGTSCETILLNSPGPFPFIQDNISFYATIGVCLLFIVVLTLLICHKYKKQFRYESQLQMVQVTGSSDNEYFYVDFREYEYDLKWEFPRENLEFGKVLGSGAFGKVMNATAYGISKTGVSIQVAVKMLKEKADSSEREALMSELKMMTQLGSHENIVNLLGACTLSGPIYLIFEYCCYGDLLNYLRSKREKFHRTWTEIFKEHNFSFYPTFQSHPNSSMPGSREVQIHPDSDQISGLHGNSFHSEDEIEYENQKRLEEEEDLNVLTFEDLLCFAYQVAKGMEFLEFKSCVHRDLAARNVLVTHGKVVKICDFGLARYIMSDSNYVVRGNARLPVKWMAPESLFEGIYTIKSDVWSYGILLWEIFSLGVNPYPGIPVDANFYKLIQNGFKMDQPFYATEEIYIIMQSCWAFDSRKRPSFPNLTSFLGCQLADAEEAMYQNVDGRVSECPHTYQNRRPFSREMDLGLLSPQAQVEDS
Excerpt: as §20, §21, §22

[3] = tested on: MOLM-14 F691L cells, FLT3 ITD and FLT3 F691L; assay: Cell proliferation assay (CellTiter-Glo), MOLM-14 F691L; type: cell-based; settings: Homo sapiens, 72 h, 3d-Growth, GMean
Excerpt: as §20, §21, §22

FLT3-D835Y = biological target: T3, FLT3-D835Y (Homo sapiens, UniProt P36888, D835Y); assay: AlphaScreen kinase assay with recombinant enzyme, FLT3-D835Y; type: biochemical; settings: 8pt, GMean
T3 construct: purchased Invitrogen PV3967
T3 sequence (P36888 27-993 D835Y): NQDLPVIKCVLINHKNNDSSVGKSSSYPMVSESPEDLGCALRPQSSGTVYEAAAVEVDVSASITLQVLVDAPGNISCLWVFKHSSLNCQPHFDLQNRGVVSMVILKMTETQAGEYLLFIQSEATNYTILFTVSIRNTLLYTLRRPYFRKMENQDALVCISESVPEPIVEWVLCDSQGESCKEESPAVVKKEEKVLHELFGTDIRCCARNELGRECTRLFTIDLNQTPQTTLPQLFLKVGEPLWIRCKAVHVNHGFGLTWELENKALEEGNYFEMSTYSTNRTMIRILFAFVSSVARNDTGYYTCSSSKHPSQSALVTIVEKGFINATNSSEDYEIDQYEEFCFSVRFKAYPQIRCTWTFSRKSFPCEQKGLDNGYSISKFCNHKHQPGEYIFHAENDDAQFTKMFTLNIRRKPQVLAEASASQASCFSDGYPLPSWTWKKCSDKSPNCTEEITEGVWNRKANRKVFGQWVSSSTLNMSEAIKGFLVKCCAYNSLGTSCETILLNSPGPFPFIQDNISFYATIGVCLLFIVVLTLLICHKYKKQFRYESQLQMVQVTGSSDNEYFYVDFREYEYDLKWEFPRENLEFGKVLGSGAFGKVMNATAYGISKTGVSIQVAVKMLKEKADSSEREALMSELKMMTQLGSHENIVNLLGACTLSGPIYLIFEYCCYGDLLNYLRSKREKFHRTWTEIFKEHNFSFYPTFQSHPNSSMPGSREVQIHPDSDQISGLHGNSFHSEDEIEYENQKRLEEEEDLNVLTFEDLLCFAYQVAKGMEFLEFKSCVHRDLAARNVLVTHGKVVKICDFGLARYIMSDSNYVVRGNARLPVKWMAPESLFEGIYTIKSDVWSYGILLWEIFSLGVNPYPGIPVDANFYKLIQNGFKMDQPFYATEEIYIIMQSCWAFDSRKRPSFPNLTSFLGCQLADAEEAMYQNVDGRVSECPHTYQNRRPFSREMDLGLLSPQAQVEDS
Description: as §1, §2, §3, §4, §5, §6, §7, §8, §9, §10, §11, §12, §13, §14, §15, §16, §17, §18, §19

T1 sequence (P10721 26-976): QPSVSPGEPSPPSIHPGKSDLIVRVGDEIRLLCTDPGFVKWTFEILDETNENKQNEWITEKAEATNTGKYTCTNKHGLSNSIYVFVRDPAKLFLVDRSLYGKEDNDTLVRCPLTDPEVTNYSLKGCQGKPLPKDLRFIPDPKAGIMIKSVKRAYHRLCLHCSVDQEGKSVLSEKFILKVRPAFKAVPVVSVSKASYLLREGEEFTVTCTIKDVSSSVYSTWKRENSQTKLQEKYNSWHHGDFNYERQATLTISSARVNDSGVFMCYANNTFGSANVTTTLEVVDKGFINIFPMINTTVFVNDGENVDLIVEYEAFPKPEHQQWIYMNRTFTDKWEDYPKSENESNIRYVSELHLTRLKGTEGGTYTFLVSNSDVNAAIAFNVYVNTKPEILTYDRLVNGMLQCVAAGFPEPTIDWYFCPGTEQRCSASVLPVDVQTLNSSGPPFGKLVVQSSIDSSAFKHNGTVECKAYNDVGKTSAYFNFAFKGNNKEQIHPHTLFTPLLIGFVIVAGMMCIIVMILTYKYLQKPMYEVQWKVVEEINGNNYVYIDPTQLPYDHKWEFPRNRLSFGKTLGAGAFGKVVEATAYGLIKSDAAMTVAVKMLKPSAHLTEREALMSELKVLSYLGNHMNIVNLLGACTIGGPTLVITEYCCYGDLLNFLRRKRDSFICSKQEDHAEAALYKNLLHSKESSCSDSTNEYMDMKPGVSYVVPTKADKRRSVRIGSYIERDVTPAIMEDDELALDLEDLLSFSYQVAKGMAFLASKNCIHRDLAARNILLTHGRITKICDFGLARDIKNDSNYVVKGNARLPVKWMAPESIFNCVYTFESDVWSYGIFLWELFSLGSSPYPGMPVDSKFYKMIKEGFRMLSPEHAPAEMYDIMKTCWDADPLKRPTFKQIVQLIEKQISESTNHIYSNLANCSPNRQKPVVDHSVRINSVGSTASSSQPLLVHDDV

Row | SMILES | pIC50 (c-KIT) | pIC50 [1] | GI50 [2] | pIC50 [3] | pIC50 (FLT3-D835Y)
1 | CC(C)(C#N)CNS(=O)(=O)c1cccc(-c2cnc3[nH]c(-c4ccccc4)cc3c2)n1 [Compound P-0108, N-(2-cyano-2-methyl-propyl)-6-(2-phenyl-1H-pyrrolo[2,3-b]pyridin-5-yl)pyridine-2-sulfonamide] | 4.00 to 4.30 | 5.00 to 10.00 | 0.0001 to 10 µM |  | 
2 | N#CCCCNC(=O)c1cccc(-c2cnc3[nH]c(-c4ccccc4)cc3c2)n1 [Compound P-0128, N-(3-cyanopropyl)-6-(2-phenyl-1H-pyrrolo[2,3-b]pyridin-5-yl)pyridine-2-carboxamide] |  | 5.00 to 10.00 |  | 5.00 to 10.00 | 5.00 to 10.00
3 | CC(C)(C#N)NC(=O)c1cccc(-c2cnc3[nH]c(-c4cnn(C5CCNCC5)c4)c(Cl)c3c2)n1 [Compound P-0207, 6-[3-chloro-2-[1-(4-piperidyl)pyrazol-4-yl]-1H-pyrrolo[2,3-b]pyridin-5-yl]-N-(1-cyano-1-methyl-ethyl)pyridine-2-carboxamide] |  | 5.00 to 10.00 |  | 5.00 to 10.00 | 5.00 to 10.00
